Assay results reported in patent US12331044B2, “Inhibitors of histone deacetylase useful for the treatment or prevention of HIV infection” (Merck Sharp & Dohme LLC, priority 2018, dated 2025).
Like-named read-outs stand apart in the source and are kept apart here.

What was measured:
human HDAC1 = human HDAC1 (Homo sapiens (Human), UniProt Q13547)
HDAC6 = HDAC6 (Homo sapiens (Human), UniProt Q9UBN7)
Experimental: (§1) The histone deacetylase activities of HDAC1, HDAC2, HDAC3, HDAC6, and HDAC8 were measured in modified FLUOR DE LYS assays in 384-well format. In this assay, HDAC enzymes are initially incubated with an F-acetyl (or -trifluoroacetyl)-L-lysine-containing substrate with a C-terminal amide having aminomethylcoumarin as the amine component. HDACs cleave the F-acetyl group, rendering the resulting product susceptible to AMC cleavage by trypsin. The released AMC is then detected by its fluorescence. […] All steps were performed at room temperature (23° C.). The assay was performed by pre-incubating serial dilutions of test compounds with the target HDAC prior to initiation with substrate. […] Final conditions used for each assay were: 1. […] The reactions were stopped and developed by addition of 30 ul of HDAC developer solution containing a saturating level of HDAC inhibitor as follows: 1. […] For data analysis, background subtracted product (fluorescence) vs. time data for each inhibitor concentration was fitted using a 4-parameter fit.

[1] = target: human HDAC3/SMRT heterodimer (Homo sapiens (Human), UniProt O15379)
KARN cells (Jurkat 2C4) = test: cells; settings: Homo sapiens
human HDAC2 = human HDAC2 (Homo sapiens (Human), UniProt Q92769); test: HDAC2 inhibition assay (modified FLUOR DE LYS, 384-well); assay type: biochemical; settings: […] enzyme, 40 μM substrate BML-KI104, 3 h pre-incubation; read-out: HDAC2 IC50
human HDAC8 = human HDAC8 (Homo sapiens (Human), UniProt Q9BY41); test: HDAC8 inhibition assay (modified FLUOR DE LYS, 384-well); assay type: biochemical; settings: […] enzyme, 200 μM substrate BML-KI178, 3 h pre-incubation; read-out: HDAC8 IC50
Experimental: as §1

[2] = read-out: Karn EC50 nM 0.1% NHS, 0.1% normal human serum, luciferase induction, 2 μM SAHA = 100%
[3] = read-out: Karn EC50 nM 5% NHS, 5% normal human serum, luciferase induction, 2 μM SAHA = 100%

Sequence of HDAC6 (Q9UBN7 whole entry): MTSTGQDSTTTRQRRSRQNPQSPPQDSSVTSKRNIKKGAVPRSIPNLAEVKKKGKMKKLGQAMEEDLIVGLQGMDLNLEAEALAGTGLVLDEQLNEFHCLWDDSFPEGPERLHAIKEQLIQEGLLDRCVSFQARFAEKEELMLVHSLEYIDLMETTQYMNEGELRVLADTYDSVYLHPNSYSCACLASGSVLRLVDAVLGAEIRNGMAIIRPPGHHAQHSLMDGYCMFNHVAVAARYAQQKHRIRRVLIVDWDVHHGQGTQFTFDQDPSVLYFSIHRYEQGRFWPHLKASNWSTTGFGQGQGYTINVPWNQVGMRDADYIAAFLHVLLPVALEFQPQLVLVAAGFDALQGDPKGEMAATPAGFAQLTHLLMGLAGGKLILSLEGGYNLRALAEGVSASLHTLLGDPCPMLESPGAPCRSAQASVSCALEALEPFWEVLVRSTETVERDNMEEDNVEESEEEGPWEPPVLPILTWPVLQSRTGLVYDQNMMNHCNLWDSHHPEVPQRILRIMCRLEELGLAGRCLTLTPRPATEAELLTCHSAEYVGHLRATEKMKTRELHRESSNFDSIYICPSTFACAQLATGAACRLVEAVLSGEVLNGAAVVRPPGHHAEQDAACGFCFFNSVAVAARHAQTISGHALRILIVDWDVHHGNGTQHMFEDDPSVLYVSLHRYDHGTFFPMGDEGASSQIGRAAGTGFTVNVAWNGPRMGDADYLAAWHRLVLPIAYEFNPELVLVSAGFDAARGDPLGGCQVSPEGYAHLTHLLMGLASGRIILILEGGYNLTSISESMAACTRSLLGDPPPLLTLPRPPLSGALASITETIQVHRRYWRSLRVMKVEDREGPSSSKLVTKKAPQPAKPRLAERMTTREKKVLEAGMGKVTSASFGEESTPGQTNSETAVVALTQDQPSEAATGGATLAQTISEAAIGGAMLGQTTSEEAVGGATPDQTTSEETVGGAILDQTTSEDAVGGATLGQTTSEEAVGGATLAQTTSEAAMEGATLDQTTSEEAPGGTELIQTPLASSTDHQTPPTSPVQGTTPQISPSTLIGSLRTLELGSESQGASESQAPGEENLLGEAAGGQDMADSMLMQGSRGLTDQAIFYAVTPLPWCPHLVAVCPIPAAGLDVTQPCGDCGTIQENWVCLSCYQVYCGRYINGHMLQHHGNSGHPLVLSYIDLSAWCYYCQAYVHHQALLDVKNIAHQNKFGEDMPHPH
Sequence of human HDAC1 (Q13547 whole entry): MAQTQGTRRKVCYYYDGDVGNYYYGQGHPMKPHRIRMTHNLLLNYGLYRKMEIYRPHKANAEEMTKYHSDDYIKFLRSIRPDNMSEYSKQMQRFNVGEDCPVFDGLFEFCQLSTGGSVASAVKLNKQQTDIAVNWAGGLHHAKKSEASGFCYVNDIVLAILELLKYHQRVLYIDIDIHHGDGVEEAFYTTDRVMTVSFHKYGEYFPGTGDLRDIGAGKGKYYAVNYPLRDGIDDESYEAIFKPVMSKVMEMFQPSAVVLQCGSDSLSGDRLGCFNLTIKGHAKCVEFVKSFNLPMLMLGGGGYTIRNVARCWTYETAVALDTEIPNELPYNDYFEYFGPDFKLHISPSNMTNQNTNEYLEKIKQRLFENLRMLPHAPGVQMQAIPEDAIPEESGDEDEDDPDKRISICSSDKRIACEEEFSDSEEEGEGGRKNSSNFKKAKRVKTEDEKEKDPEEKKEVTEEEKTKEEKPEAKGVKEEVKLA
Sequence of human HDAC8 (Q9BY41 whole entry): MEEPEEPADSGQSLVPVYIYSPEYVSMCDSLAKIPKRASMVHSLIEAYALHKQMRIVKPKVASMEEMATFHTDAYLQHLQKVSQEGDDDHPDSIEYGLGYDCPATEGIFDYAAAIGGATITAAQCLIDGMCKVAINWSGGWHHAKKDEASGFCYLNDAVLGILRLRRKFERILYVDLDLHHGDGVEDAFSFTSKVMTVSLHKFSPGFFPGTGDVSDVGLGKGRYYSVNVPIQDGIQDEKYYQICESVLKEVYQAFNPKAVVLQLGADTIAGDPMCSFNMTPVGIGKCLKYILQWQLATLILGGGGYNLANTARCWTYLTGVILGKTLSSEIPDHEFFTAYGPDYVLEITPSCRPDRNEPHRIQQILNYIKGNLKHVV
Sequence of human HDAC3/SMRT heterodimer (O15379 whole entry): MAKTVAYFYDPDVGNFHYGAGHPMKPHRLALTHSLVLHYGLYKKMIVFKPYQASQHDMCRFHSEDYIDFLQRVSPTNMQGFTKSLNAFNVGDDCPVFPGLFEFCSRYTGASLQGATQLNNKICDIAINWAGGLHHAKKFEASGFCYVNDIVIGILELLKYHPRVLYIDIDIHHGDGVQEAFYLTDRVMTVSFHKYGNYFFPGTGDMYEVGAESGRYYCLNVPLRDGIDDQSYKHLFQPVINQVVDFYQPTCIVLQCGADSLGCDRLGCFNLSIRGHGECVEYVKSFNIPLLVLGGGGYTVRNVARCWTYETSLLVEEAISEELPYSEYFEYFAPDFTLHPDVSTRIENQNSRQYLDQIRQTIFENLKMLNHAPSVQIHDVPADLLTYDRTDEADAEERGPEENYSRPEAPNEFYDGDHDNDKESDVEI
Sequence of human HDAC3/SMRT heterodimer (Q9Y618 1-899 partner): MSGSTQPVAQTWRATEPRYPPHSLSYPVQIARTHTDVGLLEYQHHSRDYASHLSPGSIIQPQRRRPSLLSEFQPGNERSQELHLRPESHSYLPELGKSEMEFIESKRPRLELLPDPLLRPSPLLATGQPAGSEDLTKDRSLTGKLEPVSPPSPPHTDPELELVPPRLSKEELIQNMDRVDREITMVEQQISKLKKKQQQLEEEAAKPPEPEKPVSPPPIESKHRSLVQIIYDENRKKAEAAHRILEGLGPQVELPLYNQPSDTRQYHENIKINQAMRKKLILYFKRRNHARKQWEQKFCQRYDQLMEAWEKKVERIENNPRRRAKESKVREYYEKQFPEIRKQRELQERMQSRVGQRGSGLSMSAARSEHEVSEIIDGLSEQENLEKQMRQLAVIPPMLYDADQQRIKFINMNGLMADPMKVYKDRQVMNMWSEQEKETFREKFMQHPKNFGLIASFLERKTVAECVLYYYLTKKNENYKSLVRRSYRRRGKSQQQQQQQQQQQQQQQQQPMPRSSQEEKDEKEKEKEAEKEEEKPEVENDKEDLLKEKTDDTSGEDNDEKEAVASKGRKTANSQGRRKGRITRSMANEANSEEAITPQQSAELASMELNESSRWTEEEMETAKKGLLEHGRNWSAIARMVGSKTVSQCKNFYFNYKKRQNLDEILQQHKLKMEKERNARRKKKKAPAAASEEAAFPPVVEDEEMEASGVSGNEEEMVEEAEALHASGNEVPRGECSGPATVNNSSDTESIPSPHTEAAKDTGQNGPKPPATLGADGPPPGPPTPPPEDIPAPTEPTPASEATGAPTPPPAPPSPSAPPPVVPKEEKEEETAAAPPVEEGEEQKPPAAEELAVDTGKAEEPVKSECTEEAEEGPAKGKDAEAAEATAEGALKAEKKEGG
Sequence of human HDAC2 (Q92769 whole entry): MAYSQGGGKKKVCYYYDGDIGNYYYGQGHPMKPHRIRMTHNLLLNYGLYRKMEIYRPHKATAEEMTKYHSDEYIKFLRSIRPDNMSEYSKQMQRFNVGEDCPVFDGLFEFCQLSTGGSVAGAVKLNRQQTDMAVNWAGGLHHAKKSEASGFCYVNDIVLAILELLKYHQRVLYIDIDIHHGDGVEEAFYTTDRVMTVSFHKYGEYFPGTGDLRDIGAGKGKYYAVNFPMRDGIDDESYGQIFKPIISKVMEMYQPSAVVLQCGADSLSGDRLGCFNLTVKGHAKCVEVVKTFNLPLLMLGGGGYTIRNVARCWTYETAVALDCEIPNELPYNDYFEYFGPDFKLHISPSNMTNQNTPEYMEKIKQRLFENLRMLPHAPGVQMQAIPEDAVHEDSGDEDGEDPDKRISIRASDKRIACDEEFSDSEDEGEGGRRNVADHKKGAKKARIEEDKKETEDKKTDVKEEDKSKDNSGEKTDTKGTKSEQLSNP

Structure (SMILES) | IC50 (human HDAC1) | IC50 (HDAC6) | IC50 [1] | EC50 (KARN cells (Jurkat 2C4); [2]) | EC50 (KARN cells (Jurkat 2C4); [3]) | IC50 (human HDAC2) | IC50 (human HDAC8)
CN1CC(C(=O)N[C@@H](CCCCCC(=O)c2ncco2)c2nc(-c3ccc(F)cc3)c[nH]2)C1 [Example 1, (S)-N-(1-(4-(4-fluorophenyl)-1H-imidazol-2-yl)-7-(oxazol-2-yl)-7-oxoheptyl)-1-methylazetidine-3-carboxamide] | 1.1 nM | 45000 nM |  |  |  |  | 
Cc1cc(C(=O)CCCCC[C@H](NC(=O)CN(C)C)c2nc(-c3ccccc3F)c[nH]2)no1 [Example 48] | 0.18 nM | 45000 nM | 0.15 nM | 28 nM | 69 nM | 1 nM | 
COc1nc2ccccc2cc1-c1cnc([C@H](CCCCCC(=O)c2ncco2)NC(=O)CN2CCCC2)[nH]1 [Example 52] | 0.56 nM |  | 1.1 nM | 23 nM | 81 nM | 2.5 nM | 44 nM
COc1nc2ccccc2cc1-c1cnc([C@H](CCCCCC(=O)c2ncco2)NC(=O)CN2CCOCC2)[nH]1 [Example 54] | 2 nM |  | 1.5 nM | 76 nM | 680 nM | 6.3 nM | 88 nM
COc1nc2ccccc2cc1-c1cnc([C@H](CCCCCC(=O)c2ncco2)NC(=O)CCCN(C)C)[nH]1 [Example 55] | 0.3 nM | 140 nM | 0.48 nM | 12 nM | 32 nM | 2.1 nM | 
CN1CCC1C(=O)N[C@@H](CCCCCC(=O)c1ccon1)c1ncc(-c2ccccc2F)[nH]1 (stereo partly shown) [Example 60] | 0.13 nM | > 900 nM |  | 4.2 nM | 9 nM | 0.41 nM | 1.7 nM
CCN[C@@H](CCCCCC(=O)c1ncco1)c1ncc(-c2cc3ccc(=O)n(C)c3cc2OC)[nH]1 [Example 77, (S)-6-(2-(1-(ethylamino)-7-(oxazol-2-yl)-7-oxoheptyl)-1H-imidazol-5-yl)-7-methoxy-1-methylquinolin-2(1H)-one] |  | > 900 nM |  | 120 nM | 120 nM |  | > 900 nM
COc1cc2nc(C)ccc2cc1-c1cnc([C@H](CCCCCC(=O)c2ncco2)NC2CCOCC2)[nH]1 [Example 80, (S)-7-(5-(7-methoxy-2-methylquinolin-6-yl)-1H-imidazol-2-yl)-1-(oxazol-2-yl)-7-((tetrahydro-2H-pyran-4-yl)amino)heptan-1-one] |  | 15000 nM | 5.7 nM | 550 nM | 680 nM | 10 nM | 3500 nM
N[C@@H](CCCCCC(=O)c1ccon1)c1cc(-c2ccc(F)cc2)on1 [Example 118, (S)-7-amino-7-(5-(4-fluorophenyl)isoxazol-3-yl)-1-(isoxazol-3-yl)heptan-1-one] | 2.4 nM | 45000 nM |  | 780 nM | 1600 nM | 8 nM | 300 nM
N[C@H](CCCCCC(=O)c1ccon1)c1cc(-c2ccc(F)cc2)on1 [Example 119, (R)-7-amino-7-(5-(4-fluorophenyl)isoxazol-3-yl)-1-(isoxazol-3-yl)heptan-1-one] | 96 nM | 45000 nM |  | 10000 nM |  | 420 nM | 260 nM
NC(CCCCCC(=O)c1ccon1)c1cnn(-c2ccc(F)cc2)c1 (stereo not shown) [Example 121, 7-amino-7-[1-(4-fluorophenyl)-1H-pyrazol-4-yl]-1-isoxazol-3-ylheptan-1-one] | 15 nM | 45000 nM | 14 nM |  |  |  | 
NC(CCCCCC(=O)c1ccon1)c1cnn(-c2ccc(F)cc2)c1 (stereo not shown) [Example 122, 7-amino-7-[1-(4-fluorophenyl)-1H-pyrazol-4-yl]-1-isoxazol-3-ylheptan-1-one] | 500 nM |  | 570 nM |  |  |  | 
Cn1cc2cc(-n3ccc([C@H](N)CCCCCC(=O)c4ncco4)n3)ccc2n1 [Example 127, (7R)-7-amino-7-[1-(2-methyl-2H-indazol-5-yl)-1H-pyrazol-3-yl]-1-(1,3-oxazol-2-yl)heptan-1-one] | 480 nM |  | 770 nM |  |  | 2600 nM | 
N[C@@H](CCCCCC(=O)c1ncco1)c1ncc(-c2cnc(C3CC3)cn2)[nH]1 [Example 131, (7S)-7-amino-7-[5-(5-cyclopropylpyrazin-2-yl)-1H-imidazol-2-yl]-1-(1,3-oxazol-2-yl)heptan-1-one] |  | > 900 nM | 9 nM | 1300 nM | 1500 nM | 23 nM | > 900 nM
N[C@@H](CCCCCC(=O)c1ncco1)c1ncc(-c2cc(F)ccc2F)[nH]1 [Example 135, (7S)-7-amino-7-[5-(2,5-difluorophenyl)-1H-imidazol-2-yl]-1-(1,3-oxazol-2-yl)heptan-1-one] |  | > 900 nM |  | 5600 nM | 13000 nM |  | > 900 nM
N[C@@H](CCCCCC(=O)c1ncco1)c1ncc(-c2ccc(OC(F)(F)F)cc2F)[nH]1 [Example 141, (7S)-7-amino-7-{5-[2-fluoro-4-(trifluoromethoxy)phenyl]-1H-imidazol-2-yl}-1-(1,3-oxazol-2-yl)heptan-1-one] |  | > 900 nM |  | 2400 nM | 3500 nM |  | > 900 nM
COc1nc2ccccc2cc1-c1cnc([C@H](CCCCCC(=O)c2ncco2)NC(=O)c2ccc(OC(F)F)nc2)[nH]1 [Example 146, 6-(difluoromethoxy)-N-[(1S)-1-[5-(2-methoxyquinolin-3-yl)-1H-imidazol-2-yl]-7-(1,3-oxazol-2-yl)-7-oxoheptyl]pyridine-3-carboxamide] | 5.3 nM |  | 2.3 nM | 130 nM | 440 nM | 16 nM | 96 nM
COc1nc2ccccc2cc1-c1cnc([C@H](CCCCCC(=O)c2ncco2)NC(=O)C2(c3ccncc3)CC2)[nH]1 [Example 151, N-[(1S)-1-[5-(2-methoxyquinolin-3-yl)-1H-imidazol-2-yl]-7-(1,3-oxazol-2-yl)-7-oxoheptyl]-1-pyridin-4-ylcyclopropanecarboxamide] | 2 nM |  | 1.5 nM | 68 nM | 790 nM | 7.8 nM | 57 nM
COc1nc2ccccc2cc1-c1cnc([C@H](CCCCCC(=O)c2ncco2)NC(=O)c2nc3ccccc3o2)[nH]1 [Example 153, N-[(1S)-1-[5-(2-methoxyquinolin-3-yl)-1H-imidazol-2-yl]-7-(1,3-oxazol-2-yl)-7-oxoheptyl]-1,3-benzoxazole-2-carboxamide] | 8.5 nM |  | 4.2 nM | 100 nM | 560 nM | 15 nM | 167 nM
COc1nc2ccccc2cc1-c1cnc([C@H](CCCCCC(=O)c2ncco2)NC(=O)c2cc3n(n2)CCCC3)[nH]1 [Example 154] | 5.1 nM |  | 2 nM | 120 nM | 570 nM | 20 nM | 110 nM
COc1nc2ccccc2cc1-c1cnc([C@H](CCCCCC(=O)c2ncco2)NC(=O)C2(c3cnccn3)CC2)[nH]1 [Example 155, N-[(1S)-1-[5-(2-methoxyquinolin-3-yl)-1H-imidazol-2-yl]-7-(1,3-oxazol-2-yl)-7-oxoheptyl]-1-pyrazin-2-ylcyclopropanecarboxamide] | 0.81 nM |  | 1.3 nM | 50 nM | 600 nM | 5.3 nM | 53 nM
COc1nc2ccccc2cc1-c1cnc([C@H](CCCCCC(=O)c2ncco2)NC(=O)[C@H]2CCC(=O)N2)[nH]1 [Example 156, N-[(1S)-1-[5-(2-methoxyquinolin-3-yl)-1H-imidazol-2-yl]-7-(1,3-oxazol-2-yl)-7-oxoheptyl]-5-oxo-D-prolinamide] | 1.1 nM |  | 1.1 nM | 88 nM | 420 nM | 5.4 nM | 
COc1nc2ccccc2cc1-c1cnc([C@H](CCCCCC(=O)c2ncco2)NC(=O)[C@@H]2CCC(=O)N2)[nH]1 [Example 157, N-[(1S)-1-[5-(2-methoxyquinolin-3-yl)-1H-imidazol-2-yl]-7-(1,3-oxazol-2-yl)-7-oxoheptyl]-5-oxo-L-prolinamide] | 0.64 nM |  | 1 nM | 77 nM | 380 nM | 4.1 nM | 
COc1cc2nc(C)ccc2cc1-c1cnc([C@H](CCCCCC(=O)c2ncco2)NC(=O)CN2CCNCC2=O)[nH]1 [Example 159, N-[(1S)-1-[5-(7-methoxy-2-methylquinolin-6-yl)-1H-imidazol-2-yl]-7-(1,3-oxazol-2-yl)-7-oxoheptyl]-2-(2-oxopiperazin-1-yl)acetamide] | 0.82 nM | 2900 nM | 1.7 nM | 1500 nM | 2900 nM | 5.8 nM | 
COc1cc2nc(C)ccc2cc1-c1cnc([C@H](CCCCCC(=O)c2ncco2)NC(=O)Cn2cccn2)[nH]1 [Example 160, N-[(1S)-1-[5-(7-methoxy-2-methylquinolin-6-yl)-1H-imidazol-2-yl]-7-(1,3-oxazol-2-yl)-7-oxoheptyl]-2-(1H-pyrazol-1-yl)acetamide] |  | > 900 nM | 0.54 nM | 48 nM | 120 nM | 5.5 nM | 71 nM
COc1cc2nc(C)ccc2cc1-c1cnc([C@H](CCCCCC(=O)c2ncco2)NC(=O)c2cc3n(n2)CCCC3)[nH]1 [Example 164] | 3.3 nM | > 900 nM | 0.87 nM | 85 nM | 290 nM | 18 nM | 
